From PubChem BioAssay (NCI)
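Five concentrations, 48 hours, 96-well plates. At the TGI there is no net growth.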 Where a SMILES comes first, the peptide text is derived from it. [ ]: non-standard residue; d: D form. Hiv = CC(C)[C@H](O)C(=O)O

Assays:
Assay in all cases: inhibition of tumour cell growth, NCI panel, 48 h
SF-268 CNS = test system: SF-268 CNS
SK-MEL-28 melanoma = test system: SK-MEL-28 melanoma
SNB-19 CNS = test system: SNB-19 CNS
SK-MEL-5 melanoma = test system: SK-MEL-5 melanoma
UACC-62 melanoma = test system: UACC-62 melanoma
SR leukemia = test system: SR leukemia
KM12 colon = test system: KM12 colon
A498 renal = test system: A498 renal
T-47D breast = test system: T-47D breast
OVCAR-8 ovarian = test system: OVCAR-8 ovarian
MOLT-4 leukemia = test system: MOLT-4 leukemia
MCF7 breast = test system: MCF7 breast
RPMI-8226 leukemia = test system: RPMI-8226 leukemia
SF-295 CNS = test system: SF-295 CNS
UO-31 renal = test system: UO-31 renal
OVCAR-4 ovarian = test system: OVCAR-4 ovarian
EKVX NSCLC = test system: EKVX NSCLC
MALME-3M melanoma = test system: MALME-3M melanoma
LOX IMVI melanoma = test system: LOX IMVI melanoma

| Structure (SMILES) | TGI (SF-268 CNS) [µM] | TGI (SK-MEL-28 melanoma) [µM] | TGI (SNB-19 CNS) [µM] | TGI (SK-MEL-5 melanoma) [µM] | TGI (UACC-62 melanoma) [µM] | TGI (SR leukemia) [µM] | TGI (KM12 colon) [µM] | TGI (A498 renal) [µM] | TGI (T-47D breast) [µM] | TGI (OVCAR-8 ovarian) [µM] | TGI (MOLT-4 leukemia) [µM] | TGI (MCF7 breast) [µM] | TGI (RPMI-8226 leukemia) [µM] | TGI (SF-295 CNS) [µM] | TGI (UO-31 renal) [µM] | TGI (OVCAR-4 ovarian) [µM] | TGI (EKVX NSCLC) [µM] | TGI (MALME-3M melanoma) [µM] | TGI (LOX IMVI melanoma) [µM] |
| --- | --- | --- | --- | --- | --- | --- | --- | --- | --- | --- | --- | --- | --- | --- | --- | --- | --- | --- | --- |
| O=C1OCCC[C@H]2O[C@@H](COCc3ccccc3)C[C@@H]12 | > 100 | > 100 | > 100 | > 100 | > 100 | > 100 | > 100 | > 100 | > 100 | > 100 | > 100 | > 100 | > 100 | > 100 | > 100 | > 100 |  |  |  |
| COc1ccc(/C=C2\CCc3cc(OC)c(OC)cc3C2=O)cc1 | > 10 | > 10 | > 10 | > 10 | > 10 | > 10 | > 10 |  | > 10 | > 10 | > 10 | > 10 | > 10 | > 10 | > 10 | > 10 | > 10 | > 10 | > 10 |
| CCOC(=O)CC(=O)CSc1c(-c2ccccc2)c(=O)n(-c2ccccc2)c(=S)n1-c1ccccc1 | > 100 | > 100 | > 100 |  | > 100 | > 100 | > 100 | > 100 | > 100 | > 100 | > 100 | > 100 |  | > 100 | > 100 | > 100 | > 100 | > 100 | > 100 |
| CNN1C(=O)c2c(C)c(C)c(C#N)c(N)c2C1=O | > 100 | > 100 | > 100 | > 100 | > 100 | > 100 | > 100 |  | > 100 | > 100 | > 100 | > 100 | > 100 | > 100 | > 100 | > 100 | > 100 | > 100 | > 100 |
| CCCCCC1=C2C(c3ccc(OC)cc3)=C(N)C(c3ccc(OC)cc3)=C3NC(=O)C(C=C1)C32 (stereo unspecified) | 38.9 | > 100 | > 100 | > 100 | > 100 |  | > 100 | > 100 | > 100 | > 100 | > 100 | > 100 | > 100 | > 100 | > 100 | > 100 | > 100 | 53.7 | > 100 |
| CCOC(=O)C(NC(=O)c1cccc(Cl)c1)(N1CCN(c2cc3c(cc2F)c(=O)c(C(=O)O)cn3C2CC2)CC1)C(F)(F)F (stereo unspecified) | 29.1 | 32.4 | 84.9 | 25.5 | 42.2 | 25.8 | 23.9 | 55.7 | 48.9 | 60.7 | 15.9 |  | 23.6 | 53.5 | 47.3 | 39 | 55.2 | 32.2 |  |
| NCCNCCCNC(=O)c1cc(-c2ccccc2)nc2ccccc12 | > 100 | 33 | > 100 | 30.5 | 46.3 | 82.3 | > 100 | > 100 | > 100 | > 100 | 52.3 | > 100 | > 100 | > 100 | > 100 |  | > 100 | 30.8 | > 100 |
| CC(C)[C@@H]1OC(=O)[C@@H](C)NC(=O)[C@@H]2CCCN2C1=O (cyclo([Hiv]-Pro-[dA])) | > 100 | > 100 | > 100 | > 100 | > 100 | > 100 | > 100 | > 100 | > 100 | > 100 | > 100 | > 100 |  | > 100 |  | > 100 | > 100 | > 100 | > 100 |
| COc1ccc(/C=C2\N=C(c3ccccc3)OC2=O)cc1OC(C)=O | > 100 | > 100 | > 100 | > 100 | > 100 | 45 |  | > 100 | > 100 | > 100 | 26.1 | > 100 | > 100 |  | > 100 | > 100 |  | 68.6 | > 100 |
| COCOc1c(C(OCOC)c2cnc(Sc3ccccc3)n2C)ccc(OC)c1OC (stereo unspecified) | > 100 | > 100 | > 100 | > 100 | > 100 | > 100 | > 100 |  | > 100 | > 100 | > 100 | > 100 | > 100 | > 100 | > 100 | > 100 | > 100 | > 100 | > 100 |
| N=c1oc2ccc(Cl)cc2cc1C(N)=O | > 100 | > 100 | > 100 | 47 | 41.3 | > 100 | 88.4 | > 100 | 94.6 | > 100 | > 100 |  | > 100 |  |  | 85.9 |  | 37.1 | > 100 |
| COc1ccc2c(c1)CCc1c-2n(CCN2CCOCC2)c2ccc(OC)cc12 | > 100 | > 100 |  | > 100 | > 100 | 34.8 | > 100 | > 100 | > 100 | > 100 | 41.1 | > 100 | > 100 | > 100 | > 100 | > 100 |  | > 100 |  |
| O=C(Nc1ncc([N+](=O)[O-])s1)c1ccccc1O | > 75.1 | > 100 | > 100 | 37.5 | 41.7 |  | 68.7 | > 100 | 64 | > 100 | > 100 | > 100 | 55 | 46.5 | 98.1 | > 100 | > 92.2 | 77.2 | > 100 |
| COc1cc2c(cc1OC)C(=O)/C(=C/c1cc(Cl)cc(Cl)c1)C2 | > 100 | > 100 | > 100 | > 24.1 | > 95.8 |  | > 21.4 | > 100 | > 100 | > 100 | > 100 | > 100 | > 100 |  | > 100 | 98.1 | > 100 | > 59.7 | > 100 |
| COC(=O)[C@@H]1COC(C(C)(C)C)N1C(=O)C(c1ccccc1)c1ccccc1 (stereo partly specified) | > 100 | > 100 | > 100 | > 100 | > 100 | 33.9 | > 100 | > 100 | > 100 | > 100 | > 100 | > 100 |  | > 100 | > 100 | > 100 | > 100 | > 100 | 52.1 |
| CSc1nc(Br)nc2ncn(C3CC(Oc4ccc(C)cc4)C(COc4ccc(C)cc4)O3)c12 (stereo unspecified) | > 100 | > 100 | > 100 | > 100 | > 100 |  | > 100 | > 100 | > 100 | > 100 | > 100 | > 100 | > 100 | > 100 | 75.7 | > 100 | > 100 | > 100 | > 100 |
| O=C(O)c1nc2ccccc2nc1NCc1ccc(F)cc1 | > 100 | > 100 | > 100 | > 100 | > 100 | > 100 | > 100 | > 100 | > 100 | > 100 | > 100 | > 100 | > 100 | > 100 | > 100 |  | > 100 |  | > 100 |
| CSc1ccc(/C=C2\N=C(c3ccccc3)N(/N=C3\C(=O)Nc4ccccc43)C2=O)cc1 | > 100 | > 100 | > 100 | > 100 | > 100 | > 100 | > 100 | > 100 | > 100 | > 100 | > 100 | > 100 |  | > 100 | > 100 | > 100 | > 100 | > 100 | > 100 |
| CC(=O)N(CCCCNC(=O)C(F)(F)F)CCCNC(=O)C(F)(F)F | > 100 | > 100 | > 100 | > 100 | > 100 | > 100 | > 100 | > 100 | > 100 | > 100 | > 100 | > 100 | > 100 | > 100 | > 100 | > 100 | > 100 |  |  |
| OCCCCCCCCCCCOc1ccc(C2OCC3(CC=CCC3)CO2)cc1 (stereo unspecified) | 40.9 | 42.4 | 43.5 | 80.2 | 32.8 | 17.1 | 28.7 |  | 31 | 43.1 | > 100 | 19.6 | > 100 | 34.7 | 40.9 | 34 | 23.8 | 43.4 | 25.2 |
| O=c1oc2c/c(=C\c3ccccn3)c(=O)c3cccc1c3-2 | > 100 | > 100 | > 100 | > 100 | > 100 | > 100 | > 100 |  | > 100 | 54.4 | > 100 | > 100 | > 100 | > 100 |  | > 100 | > 100 | > 100 | > 100 |
| CC(=O)OCC1OC(Oc2cc(C)c(O)cc2C/C=C(\C)CC/C=C(\C)C[C@@H](C=C(C)C)OC(C)=O)C(O)C(OC(C)=O)C1OC(C)=O (stereo partly specified) | > 50 | > 50 | > 50 | 18.7 | > 50 |  | > 50 | 41.9 | 30.7 | > 50 | 20.5 | > 50 | 24.1 | > 50 | > 50 | > 50 | > 50 | > 50 | 47.3 |
| N#C/C(C(=O)Nc1ccc(Cl)cc1)=C(/N)N1CCOCC1 |  | > 100 | > 100 | > 100 | > 100 | > 100 | > 100 | > 100 | > 100 | > 100 | > 100 | > 100 | > 100 | > 100 | > 100 |  | > 100 |  | > 100 |
| CC(=O)O[C@H]1C(=O)[C@@]2(C)C(C(OC(=O)c3ccccc3)[C@]3(O)CC(OC(=O)C(O)C(NC(=O)c4ccccc4)c4cccc(Cl)c4)C(C)=C1C3(C)C)[C@]1(OC(C)=O)CO[C@@H]1C[C@@H]2O (stereo partly specified) | > 10 |  | > 10 | > 10 | > 10 | 6.72 | > 10 |  | > 10 | > 10 | > 10 | > 10 | 9.49 | > 10 |  | > 10 | > 10 | > 10 | > 10 |
| CCCCc1ccc(Nc2nc(Cl)c3ncn(C4CC(Oc5ccc(C)cc5)C(COc5ccc(C)cc5)O4)c3n2)cc1 (stereo unspecified) | > 100 |  | > 100 | > 100 | > 100 | > 100 | > 100 | > 100 | > 100 | > 100 | > 100 | > 100 | > 100 | > 100 | > 100 |  | > 100 | > 100 | > 100 |
| Cc1[nH]n(-c2ccccc2)c(=O)c1C(N(CCc1ccccc1)C1=NCC(C)S1)(C(F)(F)F)C(F)(F)F (stereo unspecified) | > 100 | 51.2 | > 100 | 21.5 | 24 | 90.4 | > 100 | 30.9 | 43.1 |  | 97.8 | > 100 |  | 84.2 | 25.3 | > 100 | 36.4 | 97.9 | > 100 |
